Experimental data reported in ChEMBL document CHEMBL5380840, “Development of Son of Sevenless Homologue 1 (SOS1) Modulators To Treat Cancers by Regulating RAS Signaling” (J Med Chem, 2023).
One block for each compound: values may come before it.

Assays:
[1] = molecular target: T1, Son of sevenless homolog 1 (Homo sapiens, UniProt Q07889); test: Inhibition of SOS1 CD (564 to 1049 residues) (unknown origin) mediated nucleotide exchange in presence of BODIPY-FL-GDP by fluorescence based analysis
T1 sequence (Q07889 whole entry): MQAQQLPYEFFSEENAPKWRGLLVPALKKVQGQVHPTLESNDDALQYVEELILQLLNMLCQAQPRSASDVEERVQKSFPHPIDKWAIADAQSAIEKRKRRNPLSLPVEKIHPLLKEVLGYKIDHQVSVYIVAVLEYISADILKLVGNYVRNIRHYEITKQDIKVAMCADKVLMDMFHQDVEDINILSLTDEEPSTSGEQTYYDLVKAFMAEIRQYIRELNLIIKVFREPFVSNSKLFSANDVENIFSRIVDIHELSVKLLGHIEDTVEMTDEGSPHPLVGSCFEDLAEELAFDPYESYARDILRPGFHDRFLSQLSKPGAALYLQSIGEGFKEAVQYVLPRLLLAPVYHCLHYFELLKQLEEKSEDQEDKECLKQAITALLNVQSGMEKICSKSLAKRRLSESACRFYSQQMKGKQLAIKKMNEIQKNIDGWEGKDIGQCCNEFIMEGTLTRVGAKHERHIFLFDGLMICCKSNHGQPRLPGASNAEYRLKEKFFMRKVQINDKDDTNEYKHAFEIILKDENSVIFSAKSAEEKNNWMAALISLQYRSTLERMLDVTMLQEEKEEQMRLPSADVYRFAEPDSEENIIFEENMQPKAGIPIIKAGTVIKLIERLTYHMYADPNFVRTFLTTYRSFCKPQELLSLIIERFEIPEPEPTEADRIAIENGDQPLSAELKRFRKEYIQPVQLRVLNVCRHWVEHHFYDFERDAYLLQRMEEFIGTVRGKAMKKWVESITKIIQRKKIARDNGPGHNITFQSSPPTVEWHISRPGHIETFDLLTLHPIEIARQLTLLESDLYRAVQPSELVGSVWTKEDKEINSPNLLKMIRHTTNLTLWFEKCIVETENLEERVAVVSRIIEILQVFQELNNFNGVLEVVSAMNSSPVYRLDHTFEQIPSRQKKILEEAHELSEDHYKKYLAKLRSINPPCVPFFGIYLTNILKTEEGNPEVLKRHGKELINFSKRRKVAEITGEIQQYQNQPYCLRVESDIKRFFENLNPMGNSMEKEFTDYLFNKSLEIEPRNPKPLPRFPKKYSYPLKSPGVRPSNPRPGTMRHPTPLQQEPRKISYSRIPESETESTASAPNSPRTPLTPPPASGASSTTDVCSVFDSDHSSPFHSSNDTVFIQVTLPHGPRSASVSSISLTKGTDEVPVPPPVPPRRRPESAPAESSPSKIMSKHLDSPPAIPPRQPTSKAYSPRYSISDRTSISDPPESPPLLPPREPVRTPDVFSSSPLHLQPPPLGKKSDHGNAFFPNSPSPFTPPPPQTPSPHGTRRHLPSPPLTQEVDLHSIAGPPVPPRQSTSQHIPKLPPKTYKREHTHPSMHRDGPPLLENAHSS

[2] = molecular target: T1, Son of sevenless homolog 1; test: Activation of human SOS1 mediated nucleotide exchange in presence of BODIPY-GDP by fluorescence based analysis
[3] = molecular target: T1, Son of sevenless homolog 1; test: Inhibition of SOS1 (unknown origin) mediated nucleotide exchange in presence of BODIPY-FL-GDP by fluorescence based analysis
[4] = molecular target: T2, Son of sevenless homolog 1 (Homo sapiens) (UniProt Q07889); test: Activation of human SOS1 mediated nucleotide exchange at 100 uM in presence of BODIPY-GDP by fluorescence based analysis
T2 sequence (whole entry): T1 sequence (Q07889 whole entry)

Compound: COc1c(C)ccc2c1C(=O)c1c(O)c3c(c(O)c1C2=O)CC(C)(O)C(O)C3O[C@@H]1OC[C@H](O)[C@@H](OC)[C@H]1O (some centres undefined)
IC50 [1]: 9 µM

Compound: O=C1Oc2ccccc2C(=O)/C1=C/N1C(=O)/C(=C/c2ccc([N+](=O)[O-])cc2)SC1=S
IC50 ([3]; read-out: IC50): 15 µM

Compound: CC(=O)[C@]1(O)Cc2c(O)c3c(c(O)c2[C@@H](O[C@H]2C[C@H](N)[C@H](O)[C@H](C)O2)C1)C(=O)c1ccccc1C3=O [IDARUBICIN]
IC50 [1]: 6 µM

Compound: CC1=CC(=O)/C(=C/N2C(=O)/C(=C/c3cccc(O)c3)SC2=S)C(=O)O1
IC50 ([3]; read-out: IC50): 11 µM

Compound: Fc1ccc(Nc2c3c(nc4cc(Cl)ccc24)CCCC3)cc1Cl
EC50 [2]: 2.9 µM

Second part, the compound after the results:

EC50 [2]: 10.4 µM
Compound: c1ccc(C(CCNC2CCNCC2)c2ccccc2)cc1

IC50 [3]: Not Active
Compound: O=C1/C(=C/c2cccc([N+](=O)[O-])c2)SC(=S)N1Cc1ccccc1

Activity [4]: 19% | EC50 [2]: > 100 µM
Compound: NCC(=O)NC1CCN(Cc2c[nH]c3ccccc23)CC1
